Values of other authors in US6348490B1, “Dosage forms containing thioctic acid or solid salts of thioctic acid with improved release and bioavailability” (Asta Medica Aktiengesellschaft, priority 1994, dated 2002).

Assays:
[1] = factor versus racemate
[2] = factor versus racemate; remark: listed apart in the source

Row | SMILES | anti-nociceptive (analgesic) action, factor stronger than that of the racemate [1] | anti-inflammatory action, factor stronger than that of the racemate [2]
1 | O=C(O)CCCC[C@H]1CCSS1 (single isomer, unassigned) [S-enantiomer, S-thioctic acid] | 6 | –
2 | O=C(O)CCCC[C@@H]1CCSS1 [R-Thioctic acid, R-thioctic acid] | – | 10
